{"source": "patent US20230277550A1", "about": "“Methods for Treating Respiratory Diseases Characterized by Mucus Hypersecretion” (The Board of Trustees of the Leland Stanford Junior …, priority 2020, published 2023)", "key": {"[1]": {"system": "Primary human airway epithelial cells", "test": "MCC formation with a variety of GSIs at high and low concentrations", "assay_type": "cell-based", "details": "for epithelial structure: high concentrations; for epithelial structure / multiciliated cell formation: ALI+0 to +21d; for multiciliated cell formation: low concentration; for Notch signaling and differentiation towards MCCs: nanomolar range, human nasal epithelial cells"}, "[2]": {"system": "Primary human airway epithelial cells", "test": "GSI treatment from the apical or basal surface", "assay_type": "cell-based", "details": "ALI+0 to +21d, apical or basal application", "protocol": "Primary human airway epithelial cells were treated with DAPT and LY45139 during differentiation only (ALI+0 to +21d) from either the apical or basal surface, then labeled at ALI+21d with anti-acetylated α-Tubulin (green) and ECAD (red) antibodies. […] Apical treatment eliminates the air-liquid interface, which results in the poor epithelial structure and multiciliated cell differentiation in the untreated cultures, which is partially rescued by GSI treatment."}, "[3]": {"system": "HNEC cultures from a CF patient", "test": "IL-13 induced chronic inflammation model in ALI HNEC cultures", "assay_type": "cell-based, human", "details": "DAPT 1 um, semagacestat 125 nm, days 14-21", "protocol": "Administration of IL-13 to ALI cultures induces goblet cell hyperplasia and is a useful model of chronic inflammation. ALI HNEC cultures were prepared as described in Vladar et al. ALI cultures were treated with and without administration of Il-13 on days 7-14. DAPT (1 um), semagacestat (125 nm) or vehicle control were administered on days 14-21. PFA-fixed cultures were stained for Muc5AC (red; mucin producing secretory cells), Acetylated tubulin (green; MCCs) and E-Cadherin (blue to reveal cell boundaries).\nHNEC cultures from a CF patient were treated with IL-13 from ALI+7 to 14 to induce inflammation. […] IL-13 treatment increases the percentage of mucin positive secretory cells and decreases the percentage of MCCs."}, "[4]": {"system": "Mature (ALI+30d) primary cystic fibrosis human airway epithelial cells", "test": "DAPT treatment of mature cystic fibrosis cultures", "assay_type": "cell-based", "details": "mature CF cultures, one week (ALI+30 to +37d)", "protocol": "Mature (ALI+30d) primary cystic fibrosis human airway epithelial cells were treated with DAPT for one week (ALI+30 to +37d), then labeled with anti-acetylated α-Tubulin (green) and ECAD (red) antibodies."}, "[5]": {"system": "Primary human airway epithelial cells", "test": "MCC formation by timing of GSI treatment (proliferation, differentiation, continuous)", "assay_type": "cell-based", "protocol": "Primary human airway epithelial cells were treated with DAPT and LY45139: i) during proliferation only (ALI-5 to -1d), ii) during differentiation only (ALI+0 to +21d) or iii) continuously during the entire culture duration, followed by labeling at ALI+21d with anti-acetylated α-Tubulin (green) and ECAD (red) antibodies."}, "[6]": {"system": "healthy and CF primary human airway epithelial cultures", "test": "SEM of cilia in healthy and CF cultures", "assay_type": "cell-based", "details": "healthy and CF cultures under DAPT vs untreated healthy cultures"}, "[7]": {"system": "primary human epithelial cells", "test": "Ciliary beat frequency and cilium length with DAPT", "assay_type": "cell-based", "details": "cells differentiated in the presence of DAPT vs untreated"}, "[8]": {"system": "Mature (ALI+30d) primary human airway epithelial cells", "test": "GSI treatment of mature (ALI+30d) cultures", "assay_type": "cell-based", "details": "mature cultures treated one (ALI+30 to +37d) or two weeks (ALI+30 to +44d)", "protocol": "Mature (ALI+30d) primary human airway epithelial cells were treated with DAPT and semagacestat for one (ALI+30 to +37d) or two weeks (ALI+30 to +44d), then labeled with anti-acetylated α-Tubulin (green) and ECAD (red) antibodies."}, "[9]": {"system": "primary human nasal epithelial cells (HNECs)", "test": "Semagacestat dose response on multiciliated cell (MCC) formation in HNEC ALI cultures", "assay_type": "cell-based", "details": "1 µM DAPT; p <0.01 by ANOVA with Dunnett's test", "protocol": "Air-Liquid Interface (ALI) cultures were prepared as described in Vladar EK, Nayak JV, Milla CE, Axelrod JD. Airway epithelial homeostasis and planar cell polarity signaling depend on multiciliated cell differentiation. JCI Insight. 2016;1(13);e88027. Human nasal epithelial cells (HNECs) were generated from human sinonasal epithelial brushings or from tissue obtained from patients undergoing endoscopic sinus surgery at Stanford Hospital and cultured as described in Vladar et al.\nCultures were treated with varying doses of semagacestat. DAPT (Abcam) was used ([…]) as a positive control for GSI activity. Cultures were labeled at ALI+21d with anti-acetylated α-tubulin (green) and ECAD (red) antibodies to mark cilia and epithelial junctions.\nThe ratio was defined as MCC number/total luminal cells. Counting was done on one representative image from 5 culture replicates from a single donor."}, "[10]": {"details": "cited from earlier work"}, "CFTR": {"system": "CFTR", "test": "CFTR current in Ussing chambers, GSI with or without ETI", "assay_type": "cell-based, human", "protocol": "Cells grown at an air liquid interface were mounted on a holding slider and inserted on an Ussing chamber for electrophysiological short circuit current (Isc) measurements. Solutions in the serosal and mucosal bath were prepared so that a chloride gradient was established between both sides. After stable baseline current recordings were obtained, agonists were added in the following order: amiloride (10 µM) to block sodium channel activity, forskolin (10 µM) to stimulate CFTR, Ivacaftor (10 µM) to potentiate CFTR activity, and CFTRinh-172 (20 µM) to block CFTR current. For each agonist signals were monitored until a plateau in current was noted before adding the next agonist. The delta-Isc in response to CFTRinh-172 was used as our main read out for CFTR-mediated chloride transport.\nWe directly measured CFTR activity in cultures from CF patients treated with GSI with or without well-established effective in vitro doses of Trikafta (Elexcaftor/Tezacaftor/Ivacaftor or “ETI”). Veit, G., et al., JCI (2020) 10.1172/jci.insight.139983. Measurements were performed in Ussing chambers. […] In some individual experiments, there appeared to be a synergistic effect in the combination treatment: GSI alone has no effect but the combination treatment produced a greater response than ETI alone. This effect was not consistently seen, but raised the possibility that synergy might be observed with lower ETI doses.\nTo examine this further, we tested MK04752 in combination with varying doses of ETI (FIG. 28)."}, "[11]": {"system": "Primary nasal epithelial cells from two CF donors (F508del homozygotes)", "test": "Ciliary beat frequency (CBF) in CF donor cultures, MK-0752 and Elexacaftor", "assay_type": "cell-based, human", "details": "MK-0752 125 nM or triple modulator with Elexacaftor 100 nM; p < 0.001"}}, "data": [{"smiles": "CC(C)(C(=O)NCC(F)(F)C(F)(F)F)C(=O)N[C@@H]1C(=O)Nc2ccccc2-c2ccccc21", "note": "[RO-4929097]", "values": [{"measurement": "epithelial structure", "setting": "[1]", "value": "disrupted epithelial structure"}, {"measurement": "multiciliated cell formation", "setting": "[1]", "value": "induced multiciliated cell formation"}, {"measurement": "Notch signaling and differentiation towards MCCs", "setting": "[1]", "value": "effective in blocking Notch signaling, driving differentiation towards MCCs"}]}, {"smiles": "CCC[C@H](N[C@H]1CCc2cc(F)cc(F)c2C1)C(=O)Nc1cn(C(C)(C)CNCC(C)(C)C)cn1", "note": "[nirogacestat, (S)-2-((S)-5,7-difluoro-1,2,3,4-tetrahydronaphthalen-3-ylamino)-N-(1-(2-m-ethyl-1-(neopentylamino)propan-2-yl)-1H-imidazol-4-yl)pentanamide]", "values": [{"measurement": "epithelial structure", "setting": "[1]", "value": "disrupted epithelial structure"}, {"measurement": "multiciliated cell formation", "setting": "[1]", "value": "induced multiciliated cell formation"}, {"measurement": "Notch signaling and differentiation towards MCCs", "setting": "[1]", "value": "effective in blocking Notch signaling, driving differentiation towards MCCs"}]}, {"smiles": "C[C@H](NC(=O)Cc1cc(F)cc(F)c1)C(=O)NC(C(=O)OC(C)(C)C)c1ccccc1", "note": "(some centres unmarked) [DAPT]", "values": [{"measurement": "ciliated cell formation", "setting": "[2]", "value": "induces ciliated cell formation via both apical and basal application"}, {"measurement": "percentage of MCCs", "setting": "[3]; after IL-13 (ALI+7 to 14)", "value": "increasing the percentage of MCCs"}, {"measurement": "percentage of mucin positive secretory cells", "setting": "[3]; after IL-13 (ALI+7 to 14)", "value": "decreasing the percentage of mucin positive secretory cells"}, {"measurement": "percentage of MCCs", "setting": "[3]; controls without IL-13", "value": "increase the percentage off MCCs"}, {"measurement": "formation of additional multiciliated cells", "setting": "[4]", "value": "induces the formation of additional multiciliated cells in mature cystic fibrosis cultures"}, {"measurement": "MCC cell numbers", "setting": "[5]; treatment during differentiation (differentiation only ALI+0 to +21d, and continuous)", "value": "increased MCC cell numbers"}, {"measurement": "effect on differentiation", "setting": "[5]; treatment during proliferation only (ALI-5 to -1d)", "value": "had no effect on differentiation"}, {"measurement": "structure of multiciliated cells by SEM", "setting": "[6]", "value": "indistinguishable from those in untreated healthy cultures"}, {"measurement": "ciliary beat frequency", "setting": "[7]", "value": "modest, but significant increase"}, {"measurement": "cilium length", "setting": "[7]", "value": "no difference"}, {"measurement": "formation of additional multiciliated cells", "setting": "[8]", "value": "induces the formation of additional multiciliated cells"}, {"measurement": "ratio MCC number/total luminal cells", "setting": "[9]", "value": "significant increases"}]}, {"smiles": "O=C(O)CC[C@H]1CC[C@@](c2cc(F)ccc2F)(S(=O)(=O)c2ccc(Cl)cc2)CC1", "note": "[MK-0752]", "values": [{"measurement": "most common drug-related toxicities", "setting": "[10]; 450 to 4,200 mg, three schedules", "value": "diarrhea, nausea, vomiting, and fatigue"}, {"measurement": "tolerability", "setting": "[10]; weekly dosing", "value": "generally well-tolerated"}, {"measurement": "epithelial structure", "setting": "[1]", "value": "disrupted epithelial structure"}, {"measurement": "multiciliated cell formation", "setting": "[1]", "value": "induced multiciliated cell formation"}, {"measurement": "Notch signaling and differentiation towards MCCs", "setting": "[1]", "value": "effective in blocking Notch signaling, driving differentiation towards MCCs"}, {"measurement": "CFTR current with suboptimal doses of ETI", "setting": "CFTR; MK04752 with varying (reduced Elexacaftor) doses of ETI", "value": "suboptimal doses of ETI appear to be potentiated by MK04752"}, {"measurement": "CFTR current induced by ETI", "setting": "CFTR; cultures from CF patients, GSI plus ETI", "value": "Neither LY45139 (FIG. 26) nor MK04752 (FIG. 27) impaired the CFTR current"}, {"measurement": "ciliary beat frequency (CBF) vs control", "setting": "[11]", "value": "significant effect in increasing the CBF"}]}]}
